Patent publication US6124322A, “Intravenous form of thalidomide for treating immunological diseases” (Gruenenthal GmbH, priority 1997, dated 2000)
Converted amounts (≈) assume the structure as drawn.

Tests used:
aphthous stomatitis = conditions: treatment of aphthous stomatitis; cited from earlier work
[1] = hydrolysis in aqueous solution; format: physicochemical; conditions: aqueous solutions, pH not restricted
Excerpt: The enantiomers of thalidomide have a solubility in water which is higher by a factor of 6 than that of the racemate.

[2] = Arch. Pharm. 321, 371 (1988); cited from earlier work
[3] = tested on: cutaneous lupus erythematosus, pyoderma gangrenosum, orogenital ulcers with morbus Behcet, ulcerations in HIV-infected patients; conditions: cited from earlier work

O=C1CCC(N2C(=O)c3ccccc3C2=O)C(=O)N1 (racemic) [thalidomide]
efficacy in aphthous stomatitis versus classical immunosuppressants (aphthous stomatitis): superior to classical immunosuppressants | hydrolysis in aqueous solution [1]: tendency of thalidomide to undergo spontaneous hydrolysis | solubility in water [2]: 12 µg/mL (≈ 46.5 µM) | efficacy without general immunosuppression [3]: good efficacy without resulting in a general immunosuppression
